Reference: US5804577A, “Cephalosporin derivatives” (Hoffmann-La Roche Inc., priority 1995, dated 1998)
Values after ≈ are worked out from the molar mass of the structure shown. Where a name gives a salt, the structure may show the parent alone. Read-outs that look alike come from different tables or passages of the source.

How the values were obtained:
Assay in all cases: MIC by agar dilution method in Mueller Hinton agar
Assay type in all cases: cell-based
[1] = system: K. pneumoniae 418; settings: Klebsiella pneumoniae, 418
Protocol: (§1) In vitro activity was determined by minimum inhibitory concentration in a microorganism spectrum by the agar dilution method in Mueller Hinton agar.

[2] = system: C. freundii 43; settings: Citrobacter freundii
Protocol: as §1

[3] = system: E. cloacae 908R; settings: Enterobacter cloacae
Protocol: as §1

[4] = system: S. viridans group 016; settings: Streptococcus viridans, GROUP016
Protocol: as §1

[5] = system: Acinetobacter sp. 51-156; settings: SP.51156
Protocol: as §1

[6] = system: E. cloacae 908SSi; settings: Enterobacter cloacae
Protocol: as §1

[7] = system: E. coli 25922; settings: Escherichia coli
Protocol: as §1

[8] = system: S. aureus 6538; settings: Staphylococcus aureus
Protocol: as §1

[9] = system: E. faecalis 6; settings: Enterococcus faecalis
Protocol: as §1

[10] = system: P. aeruginosa 27853; settings: Pseudomonas aeruginosa
Protocol: as §1

[11] = system: S. agalactiae QK44; settings: Streptococcus agalactiae
Protocol: as §1

[12] = system: L. monocytogenes BK23; settings: Listeria monocytogenes
Protocol: as §1

[13] = system: S. marscescens 69438
Protocol: as §1

[14] = system: S. aureus 734 MRSA; settings: Staphylococcus aureus
Protocol: as §1

[15] = system: P. vulgaris 1028; settings: Proteus vulgaris
Protocol: as §1

[16] = system: X. maltophilia 1AC739; settings: Stenotrophomonas maltophilia
Protocol: as §1

[17] = system: C. freundii 902; settings: Citrobacter freundii
Protocol: as §1

[18] = system: P. asaccharolyticus 29743; settings: Peptoniphilus asaccharolyticus
Protocol: as §1

[19] = system: C. difficile ZH1; settings: Clostridioides difficile
Protocol: as §1

[20] = system: M. catarrhalis RA21; settings: Moraxella catarrhalis
Protocol: as §1

[21] = system: M. morganii 6H-137; settings: Morganella morganii, 6H137
Protocol: as §1

[22] = system: P. mirabilis 2117; settings: Proteus mirabilis; P. mirabilis 2117; read-out: MIC
Protocol: as §1

[23] = system: B. fragilis ATCC25285; settings: Bacteroides fragilis, ATCC25285
Protocol: as §1

[24] = Acinetobacter sp. 51-156, read-out: MIC
[25] = X. maltophilia 1AC739, read-out: MIC
[26] = C. difficile ZH1, read-out: MIC
[27] = P. vulgaris 1028, read-out: MIC
[28] = P. aeruginosa 27853, read-out: MIC
[29] = E. cloacae 908SSi, read-out: MIC
[30] = L. monocytogenes BK23, read-out: MIC

SMILES	MIC [1] [µg/mL]	MIC ([2]; C. freundii 43, read-out: MIC) [µg/mL]	MIC ([3]; E. cloacae 908R, read-out: MIC) [µg/mL]	MIC [4] [µg/mL]	MIC ([6]; 908SSI) [µg/mL]	MIC [8]; 6538 [µg/mL]	MIC [9]; 6 [µg/mL]	MIC [10]; 27853 [µg/mL]	MIC [11] [µg/mL]	MIC ([12]; BK23) [µg/mL]	MIC [13] [µg/mL]	MIC ([14]; MRSA) [µg/mL]	MIC [15]; 1028 [µg/mL]	MIC [17]; 902 [µg/mL]	MIC ([3]; 908R) [µg/mL]	MIC ([5]; Acinetobacter) [µg/mL]	MIC ([20]; RA21) [µg/mL]	MIC [23] [µg/mL]	MIC ([16]; 1AC739) [µg/mL]	MIC [10, 28] [µg/mL]	also measured
Nc1nc(/C(=N/O)C(=O)N[C@@H]2C(=O)N3C(C(=O)O)=C(/C=C4\CCN(c5ccc(O)c(F)c5)C4=O)CS[C@H]23)cs1 [C, (6R,7R)-7-[(Z)-2-(2-Amino-thiazol-4-yl)-2-(hydroxyimino-acetylamino]-3-[(E)-1-(3-fluoro-4-hydroxy-phenyl)-2-oxo-pyrrolidin-3-ylidenemethyl]-8-oxo-5-thia-1-azabicyclo[4.2.0]oct-2-ene-2-carboxylic acid trifluoroacetate]	0.12	4	32	0.12	0.5	0.5	1	4	0.06	1	1	4	8	0.12	–	–	–	–	–	–	MIC [5, 24]: 32 µg/mL; MIC [7]; 25922: 0.12 µg/mL; MIC [16, 25]: > 32 µg/mL
Nc1ccc(CN2CC/C(=C\C3=C(C(=O)O)N4C(=O)[C@@H](NC(=O)/C(=N\O)c5csc(N)n5)[C@H]4SC3)C2=O)cc1 [D, (6R,7R)-7-[(Z)-2-(2-Amino-thiazol-4-yl)-2-(hydroxyimino-acetylamino]-3-[(E)-1-(4-aminobenzyl)-2-oxo-pyrrolidin-3-ylidenemethyl]-8-oxo-5-thia-1-azabicyclo[4.2.0-]oct-2-ene-2-carboxylic acid trifluoroacetate]	0.25	–	–	0.5	0.5	1	1	> 32	0.25	4	1	8	> 32	–	> 32	32	4	8	> 32	–	MIC [18]: 1 µg/mL; MIC [2]; 43: 8 µg/mL; MIC [19, 26]: 16 µg/mL; MIC ([21]; M. morganii 6H-137, read-out: MIC): 0.12 µg/mL; MIC ([7]; E. coli 25922, read-out: MIC): 0.25 µg/mL; MIC [22]: 0.12 µg/mL; MIC ([17]; C. freundii 902, read-out: MIC): 0.25 µg/mL
Nc1nc(/C(=N/O)C(=O)N[C@@H]2C(=O)N3C(C(=O)O)=C(/C=C4\CCN(Cc5cccc(O)c5)C4=O)CS[C@H]23)cs1 [E, (6R,7R)-7-[(Z)-2-(2-Amino-thiazol-4-yl)-2-(hydroxyimino-acetylamino]-3-[(E)-1-(3-hydroxybenzyl)-2-oxo-pyrrolidin-3-ylidenemethyl]-8-oxo-5-thia-1-azabicyclo[4.2.0]oct-2-ene-2-carboxylic acid trifluoroacetate]	0.25	4	8	0.5	0.5	–	0.5	8	0.12	2	0.5	–	–	0.25	–	32	2	8	> 32	–	MIC [19, 26]: 4 µg/mL; MIC ([8]; S. aureus 6538, read-out: MIC): 0.5 µg/mL; MIC ([14]; S. aureus 734 MRSA, read-out: MIC): 16 µg/mL; MIC [15, 27]: 16 µg/mL
Nc1nc(/C(=N/O)C(=O)N[C@@H]2C(=O)N3C(C(=O)O)=C(/C=C4\CCN(c5nncs5)C4=O)CS[C@H]23)cs1 [F, (6R,7R)-7-[(Z)-2-(2-Amino-thiazol-4-yl)-2-hydroxyimino-acetylamino]-8-oxo-3-[(E)-2-oxo-1-(1,3,4-thiadiazol-2-yl)-pyrrolidin-3-ylidenemethyl]-5-thia-1-aza-bicyclo[4.2.0]oct-2-ene-2-carboxylic acid trifluoracetate (1:1)]	0.25 (≈ 0.456 µM)	8 (≈ 14.6 µM)	–	0.5 (≈ 0.911 µM)	1 (≈ 1.82 µM)	1 (≈ 1.82 µM)	1 (≈ 1.82 µM)	–	0.25 (≈ 0.456 µM)	4 (≈ 7.29 µM)	32 (≈ 58.3 µM)	16 (≈ 29.2 µM)	> 32	0.12 (≈ 0.219 µM)	> 32	> 32	> 16	–	> 32	> 32	MIC [21]: 0.5 µg/mL (≈ 0.911 µM); MIC [7]; 25922: 0.12 µg/mL (≈ 0.219 µM); MIC [22]: 0.25 µg/mL (≈ 0.456 µM)
Nc1nc(/C(=N/O)C(=O)N[C@@H]2C(=O)N3C(C(=O)O)=C(/C=C4\CCN(C5CCNCC5)C4=O)CS[C@H]23)cs1 [G, (6R,7R)-7-[(Z)-2-(2-Amino-thiazol-4-yl)-2-hydroxyimino-acetylamino]-8-oxo-3-[(E)-2-oxo-1-piperidin-4-yl-pyrrolidin-3-ylidenemethyl]-5-thia-1-aza-bicyclo[4.2.0-]oct-2-ene-2-carboxylic acid hydrochloride (1:2)]	–	–	4	–	–	1	1	–	0.25	–	1	8	> 32	–	–	32	2	16	> 32	8	MIC [18]: 1 µg/mL; MIC [2]; 43: 2 µg/mL; MIC ([19]; ZH1): 16 µg/mL; MIC [6, 29]: 0.25 µg/mL; MIC [12, 30]: 4 µg/mL
CO/N=C(\C(=O)N[C@@H]1C(=O)N2C(C(=O)O)=C(CSc3nc(=O)c(=O)[nH]n3C)CS[C@H]12)c1csc(N)n1 [II, reference compound]	–	32 (≈ 57.7 µM)	–	–	–	4 (≈ 7.21 µM)	–	–	–	–	–	> 32	–	–	> 32	–	–	–	–	16 (≈ 28.9 µM)	MIC ([4]; S. viridans group 016, read-out: MIC): 0.25 µg/mL (≈ 0.451 µM); MIC [5, 24]: 32 µg/mL (≈ 57.7 µM); MIC ([20]; M. catarrhalis RA21, read-out: MIC): 1 µg/mL (≈ 1.8 µM); MIC [6, 29]: 0.25 µg/mL (≈ 0.451 µM); MIC ([9]; E. faecalis 6, read-out: MIC): > 32 µg/mL; MIC [12, 30]: > 16 µg/mL; MIC ([13]; S. marscescens 69438, read-out: MIC): 0.25 µg/mL (≈ 0.451 µM); MIC [15, 27]: 0.12 µg/mL (≈ 0.216 µM); MIC [16, 25]: > 32 µg/mL; MIC ([17]; C. freundii 902, read-out: MIC): 0.25 µg/mL (≈ 0.451 µM)
